Reference: BindingDB's records for PubMed 27409354 (n/a, 2016)

Assay: Binding affinity to CypD (unknown origin)

Ki: 2 µM
Compound: O=C(Nc1ccc2nc(-c3ccco3)c(-c3ccco3)nc2c1)N1CCCC1
